As a reminder, the inhibition is the change of the read-out against control, counted positive when it falls.

In series [1] the test system is Human immunodeficiency virus 1. Put plainly: MMV: HIV JRFL CCR5-tropic replication-competent virus, virus & compound washed out Day 1 pi, P24 ELISA Day 7 pi, U87-CD4-CCR5, % inhibition at 5 mM compound. The series is classed as functional. Also on record: dose or concentration left out as unconfirmed. To be noted: Human immunodeficiency virus 1, JR-FL.
Series [2] is described as follows: MMV: MTT Cytotoxicity Assay Day 7 pi of Assay #11 (NO washout), U87-CD4-CXCR4 cells, % cell death @ 5mM compound. The series is classed as toxicity, cell-based. Particulars: human, u87-cd4-cxcr4, 5000 µM.
Series [3] can be described thus: MMV: MTT Cytotoxicity Assay Day 3 pi, U87-CD4-CXCR4 cells, % cell death @ 5mM compound. In kind it is toxicity, cell-based. Particulars: human, u87-cd4-cxcr4, 5000 µM.
Series [4] is described as follows: MMV: MTT Cytotoxicity Assay Day 7 pi of Assay #6 (compound washed out Day 1 pi), U87-CD4-CCR5 cells, % cell death @ 5mM compound. Particulars: human, u87-cd4-ccr5, 5000 µM. In kind it is toxicity, cell-based.
Series [5] is described as follows: MMV: MTT Cytotoxicity Assay Day 7 pi of Assay #10 (NO washout), U87-CD4-CCR5 cells, % cell death @ 5mM compound. The series is classed as toxicity, cell-based. Particulars: human, u87-cd4-ccr5, 5000 µM.
Series [6] in a line: MMV: MTT Cytotoxicity Assay Day 3 pi, U87-CD4-CCR5 cells, % cell death @ 5mM compound. In kind it is toxicity, cell-based. To be noted: human, u87-cd4-ccr5, 5000 µM.
Series [7] can be described thus: MMV: MTT Cytotoxicity Assay Day 7 pi of Assay #7 (compound washed out Day 1 pi), U87-CD4-CXCR4 cells, % cell death @ 5mM compound. In kind it is toxicity, cell-based. To be noted: human, u87-cd4-cxcr4, 5000 µM.

On to `CN1CCN(c2ccc(Nc3c4ccccc4nc4ccccc34)cc2)CC1`, for which the inhibition in series [1] amounted to 6%. Moreover, the “% Cell Death” value was -32 in series [2]; 22 in series [3]; 22 in series [4]; 19 in series [5]; 11 in series [6]; -14 in series [7].

For `c1ccc2c(NCCc3c[nH]c4ccccc34)c3ccccc3nc2c1`, the inhibition in series [1] is 5%. In addition, the “% Cell Death” value in series [2] is recorded as 42; in series [3], 62; in series [4] it was 29; in series [5], 20; in series [6], 64; in series [7] it was -4.

Regarding `CN(C)c1ccc(N2C(N)=NC(N)=NC2(C)C)cc1`, the inhibition in series [1] turned out to be 1%. For the same compound, the “% Cell Death” value is reported as 21 in series [2]; 21 in series [3]; 14 in series [4]; 4 in series [5]; -12 in series [6]; 12 in series [7].

With `Cc1ccc(CSCc2ccc(C(=O)NC3CC3)o2)cc1`, the inhibition in series [1] turned out to be 2%. Moreover, the “% Cell Death” value is given as -2 in series [2]; 12 in series [3]; 18 in series [4]; -6 in series [5]; 23 in series [6]; -23 in series [7].

With `C=CC12CCN(CC1)C(C(O)c1ccnc3ccc(OC)cc13)C2.Cl` (stereo not given), the inhibition in series [1] was -2%. Besides, the “% Cell Death” value is recorded as -24 in series [2]; 27 in series [3]; -12 in series [4]; 27 in series [5]; -14 in series [6]; -23 in series [7].

In the case of `CCCCOC(=O)c1ccc(Nc2cc(C)nc3ccc(OC)cc23)cc1`, the inhibition in series [1] amounted to 0%. For the same compound, the “% Cell Death” value in series [2] was -45; in series [3] it was 30; in series [4], 16; in series [5] it was 21; in series [6] it was 32; in series [7] it was -10.

As to `Cc1sc2ncnc(Sc3nc4ccccc4[nH]3)c2c1C`, in series [1], the inhibition was -1%. Also, the “% Cell Death” value in series [2] is -15; in series [3], 18; in series [4], -6; in series [5] it was 27; in series [6], 16; in series [7], -5.

For the compound `Cc1cc(C)c2nc(N3CCC(C(=O)NCCCN4CCC(N5CCCCC5)CC4)CC3)sc2c1`, the inhibition in series [1] is 1%. Further, the “% Cell Death” value in series [2] is listed as -37; in series [3], 8; in series [4], 5; in series [5] it was -39; in series [6], -8; in series [7] it was -20.

As for `O=C(NCc1ccco1)C1CCN(S(=O)(=O)c2ccc(Cl)cc2)CC1`, the inhibition in series [1] is 1%. Moreover, the “% Cell Death” value was 23 in series [2]; 12 in series [3]; 37 in series [4]; 18 in series [5]; 22 in series [6]; -15 in series [7].

For the compound `Cl.Clc1cc(Br)ccc1-c1ccc(CNCC2CCNCC2)o1`, in series [1], the inhibition was determined as 4%. In addition, the “% Cell Death” value is listed as -60 in series [2]; 27 in series [3]; -9 in series [4]; 0 in series [5]; 15 in series [6]; 4 in series [7].

On to `O=C(NCC(c1ccsc1)N1CCCCCC1)c1ccc(C(F)(F)F)cc1` (stereo not given), for which the inhibition in series [1] was determined as 1%. Besides, the “% Cell Death” value is 12 in series [2]; 23 in series [3]; 12 in series [4]; 19 in series [5]; 10 in series [6]; -26 in series [7].

With `Cc1ccc(-c2nc3ccccc3o2)cc1NCc1cc(Cc2ccccc2)ccc1O`, the inhibition in series [1] came out at 8%. Besides, the “% Cell Death” value was 52 in series [2]; 15 in series [3]; -7 in series [4]; 13 in series [5]; 27 in series [6]; -11 in series [7].

`CCOC(=O)C1=C(C)N=c2sc(=Cc3cc(Cl)ccc3O)c(=O)n2C1c1ccc(OC)cc1` (stereo not given): the inhibition in series [1] worked out at 1%. Moreover, the “% Cell Death” value in series [2] is -46; in series [3], 15; in series [4], 10; in series [5], 11; in series [6] it was -27; in series [7], -6.

Turning to `CCCOCc1cc(CN2CCN(c3cccc(Cl)c3)CC2)c(O)c2ncccc12`, the inhibition in series [1] is 9%. For the same compound, the “% Cell Death” value in series [2] is given as -57; in series [3] it was 31; in series [4] it was -8; in series [5], 15; in series [6], 24; in series [7] it was -7.

Regarding `CC(O)(c1ccc(Cl)cc1)C(CN1CCCCC1)c1ccccc1.Cl` (stereo not given), the inhibition in series [1] was 3%. In addition, the “% Cell Death” value in series [2] is on record as -5; in series [3] it was 3; in series [4], 24; in series [5], 19; in series [6], -11; in series [7] it was -24.

Regarding `COc1cc2cc(C(=O)Nc3ccccc3)c(N)nc2cc1OC`, the inhibition in series [1] was 9%. In addition, the “% Cell Death” value in series [2] was 106; in series [3] it was 43; in series [4], 0; in series [5] it was 95; in series [6] it was 75; in series [7], 51.

For `CN1CCN(c2ncnc3c2[nH]c2ccc(Cl)cc23)CC1`, the inhibition in series [1] stood at 10%. Besides, the “% Cell Death” value in series [2] is 1; in series [3], 27; in series [4] it was 29; in series [5] it was 31; in series [6], -11; in series [7] it was -25.

Regarding `Clc1ccc2c(N3CCCC3)ccnc2c1`, in series [1], the inhibition is 5%. Besides, the “% Cell Death” value is recorded as -37 in series [2]; 21 in series [3]; 3 in series [4]; 16 in series [5]; 8 in series [6]; 1 in series [7].

Regarding `O=c1nc(C=Cc2ccc(Cl)cc2)oc2ccccc12`, in series [1], the inhibition amounted to 1%. The “% Cell Death” value in series [2] is -47; in series [3] it was 20; in series [4] it was 7; in series [5], 26; in series [6] it was 50; in series [7] it was -17.

With `COCCNC(=O)c1ccc(OC2CCN(Cc3ccc(F)c(F)c3)CC2)c(Cl)c1`, the inhibition in series [1] came to 9%. The “% Cell Death” value in series [2] is listed as -22; in series [3], 4; in series [4], 20; in series [5] it was 15; in series [6], 31; in series [7], -5.

Source of the values: ChEMBL document CHEMBL3301472, “MMV Malaria Box HIV and cytotoxicity screening”.
